{"source": "patent US20080220528A1", "about": "“HIV GENE CLONING STRATEGY” (SCHERING CORPORATION, priority 2006, published 2008)", "key": {"[1]": {"test_system": "RU570-VCV virus", "experiment": "Viral replication assay in PBL (p24 ELISA), vicriviroc-passaged culture", "type": "cell-based, HIV-1", "method": "The Hut 78 derived PM-1 (Lusso, P., et al (1995). J Virol 69(6), 3712-20) T-cell line was infected with a parental PBL stock of HIV-1 RU570 for one week prior to the initiation of vicriviroc selection starting at 0.1 nM. PM-1 cell cultures were passaged weekly by transferring 1 ml of cell culture supernatant and one tenth of the infected cells into fresh PM-1 cultures (1-2×10^6) in the absence (passage control culture, RU570-PC) or presence (RU570-VCV) of vicriviroc. Culture supernatants were subsequently used to re-infect fresh PM-1 cells weekly. Viral supernatants and infected cells were collected periodically for p24 antigen titers, vicriviroc sensitivity testing in PBL described below in the viral replication assay section, and sequence analysis. […] To select for minor populations of highly resistant variants that may have emerged, the concentration of vicriviroc was escalated to 10 μM at week 36 and cultures were maintained in 10 μM vicriviroc until viral replication remained consistent. By approximately week 56, VCV-treated cultures were replicating to similar levels compared to the passage control cultures and maintained consistently robust growth up to 93 weeks when cultures were terminated.\nIL-2/PHA-stimulated PBL were seeded into 96-well plates (200,000 cells/well) pretreated with an equal volume of medium plus vicriviroc or medium only at 37° C. for 1 hour. The plates were centrifuged at 300 g for 10 min and the media aspirated and replaced with 20 μl of fresh medium with or without compound. The cells were then infected in triplicate using 20 μl of viral supernatant (RU570) from 3 hr to overnight at 37° C. The cells were washed twice with PBS to remove residual viral inoculums and cultured in the presence or absence of vicriviroc for 4-6 days. Viral replication was assessed by measuring p24 antigen production by ELISA. The IC50 and IC90 values for vicriviroc susceptibility with these viruses was determined by analyzing dose-response curves using a 4-parameter logistic curve fit model with Prism GraphPad Software Version 4.0 (San Diego, Calif.)."}, "[2]": {"test_system": "pseudoviruses with ADA-V3res chimeric envelope", "experiment": "Single-cycle HIV-1 pseudovirus luciferase assay in U87-CD4-CCR5 cells", "type": "cell-based", "method": "(§1) Homologous recombination of the V2-C5 gp120 fragment from RU570-PC gp120 clone #16 and RU570-VCVres gp120 clone #8 was performed following restriction endonuclease digestion of constructs with MfeI and gel purification of the 838 bp V2-C5 gp120 fragments (HXB2 gp120 nucleotides 533-1431; gp120 at position 185-478). The pSV7d-ADA gp160 expression vector was digested with BglII and BstZ17I restriction endonucleases, alkaline phosphatase treated and the 5.1 kb vector was gel purified on 1% agarose. A 50:1 ratio of V2-C5res gp120 fragment to vector was used to transform chemically-competent BJ5183 E. coli, and individual colonies were screened by PCR for successful recombination.\n(§2) HIV-1 pseudoviruses were produced in 293T cells by calcium phosphate transfection of pNL4-3E^−Luc^+ and HIV-1 envelope expression vectors using ProFection® Mammalian Transfection system (Promega Corp., Madison, Wis.). HIV-1 pseudovirus was harvested in culture supernatants 48 hrs post-transfection and supernatants were clarified of cell debris by centrifugation at 1500 g for 10 min. Single-cycle infection assays were generally performed on the same day HIV-1 pseudovirus was harvested. To assess susceptibility to CCR5 co-receptor antagonists, 5,000 U87-CD4-CCR5 cells/well were seeded into 96-well luminometer plates (Perkin Elmer) and plates were incubated overnight at 37° C. The next day serial 10-fold dilutions of inhibitor in cell culture medium (10 μM→1.0 μM) were added to wells one hour prior to the addition of HIV-1 pseudovirus plus inhibitor. Plates were incubated for 72 hours, and luciferase activity was analyzed by adding 50 μl of BrightGlo™ luciferase assay buffer and plates were read on a Dynex luminometer (300 mSec/well). Relative light units (RLU) were normalized to virus dose, measured as ng p24, and percent inhibition, was calculated as follows: 100−[average normalized RLU for HIV-1 pseudovirus plus drug/average normalized RLU for HIV-1 pseudovirus from control wells without drug]×100. Dose-response data was analyzed using a non-linear regression 4-parameter logistic curve fit program with Prism GraphPad Software Version 4.0 (San Diego, Calif.)."}, "[3]": {"test_system": "pseudoviruses with ADA-C2-V5res chimeric envelope", "experiment": "Single-cycle HIV-1 pseudovirus luciferase assay in U87-CD4-CCR5 cells", "type": "cell-based", "method": "as §1, §2"}, "[4]": {"test_system": "pseudovirus with RU570-PC-C2-V5res chimeric envelope", "experiment": "Single-cycle HIV-1 pseudovirus assay, effect of viral inoculum", "type": "cell-based", "conditions": "very high inoculum, 90 ng p24", "method": "as §2, with “The next day serial 10-fold dilutions of inhibitor in cell culture medium (10 μM→1.0 μM) were added to wells one hour prior to the addition of HIV-1 pseudovirus plus inhibitor.” left out"}, "[5]": {"test_system": "replication competent HIV-1 virus containing the ADA-C2-V5res chimeric envelope sequence (NL4-3-AD8-C2-V5res)", "experiment": "Vicriviroc susceptibility assay with replication competent virus in U87-CD4-CCR5 cells", "type": "cell-based", "conditions": "multi-cycle infection", "text": "(§3) The pNL4-3-AD8 molecular clone was modified by deleting 650 bp of cDNA sequence flanking the 5′LTR, thereby creating a unique Stu I site within gp120. The ADA-V3res and ADA-C2-V5res chimeric envelopes were digested with StuI and AleI restriction endonucleases and the 1.2 kb env fragments corresponding to at 203-608 (HXB2 gp160 aa coordinates) were gel purified on 1% agarose. These fragments were cloned directly into pNL4-3-AD8 digested with the same restriction endonucleases and all constructs were verified by DNA sequence analysis.\n(§4) 293T cells were transfected with pNL4-3-AD8, pNL4-3-AD8-C2-V5res, and pNL4-3-AD8-V3res molecular clones using Superfect transfection reagent (Qiagen Corp., Vencia, Calif.) and HIV-1 virus was harvested in supernatants 48 hr post transfection.\n(§5) CCR5 inhibitor resistance was previously reported to be influenced by the assay format in which resistance is evaluated (Pugach, P., et al (2007). Virology 361(1), 212-28). […] In order to evaluate differences in susceptibility profiles between single-cycle and multi-cycle infection assays in U87-CD4-CCR5 cells, we generated replication competent viruses expressing the chimeric gp120 envelopes. Restriction fragments corresponding to HXB2 aa 203-608 within ADA-V3res and ADA-C2-V5res chimeric envelopes were transferred to an NL4-3-AD8 HIV-1 molecular clone by unique restriction-site digestion and relegation. […]"}, "[6]": {"test_system": "HIV-1 particles pseudotyped with RU570-PC gp160 envelope", "experiment": "Single-cycle HIV-1 pseudovirus luciferase assay in U87-CD4-CCR5 cells", "type": "cell-based", "method": "as §2"}, "[7]": {"test_system": "HIV-1 particles pseudotyped with ADA gp160", "experiment": "Single-cycle HIV-1 pseudovirus luciferase assay in U87-CD4-CCR5 cells", "type": "cell-based", "method": "as §2"}, "[8]": {"test_system": "HIV-1 particles pseudotyped with VCVres chimeric RU570-PC envelopes (RU570-PC-C2-C3res, -C2-V4res, -C2-V5res)", "experiment": "Single-cycle HIV-1 pseudovirus luciferase assay in U87-CD4-CCR5 cells", "type": "cell-based", "method": "as §2"}, "[9]": {"test_system": "NL4-3-AD8-V3res virus", "experiment": "Vicriviroc susceptibility assay with replication competent virus in U87-CD4-CCR5 cells", "type": "cell-based, HIV-1", "conditions": "Human immunodeficiency virus 1, NL43, multi-cycle infection", "text": "as §3, §4, §5"}, "[10]": {"test_system": "NL4-3-AD8 virus", "experiment": "Vicriviroc susceptibility assay with replication competent virus in U87-CD4-CCR5 cells", "type": "cell-based, HIV-1", "conditions": "Human immunodeficiency virus 1, NL43, multi-cycle infection", "text": "as §3, §4, §5"}, "[11]": {"test_system": "RU570 passage control virus (RU570-PC)", "experiment": "Viral replication assay in PBL (p24 ELISA), passage control culture", "type": "cell-based, HIV-1", "conditions": "through 93 weeks of cell culture", "method": "The Hut 78 derived PM-1 (Lusso, P., et al (1995). J Virol 69(6), 3712-20) T-cell line was infected with a parental PBL stock of HIV-1 RU570 for one week prior to the initiation of vicriviroc selection starting at 0.1 nM. PM-1 cell cultures were passaged weekly by transferring 1 ml of cell culture supernatant and one tenth of the infected cells into fresh PM-1 cultures (1-2×10^6) in the absence (passage control culture, RU570-PC) or presence (RU570-VCV) of vicriviroc. Culture supernatants were subsequently used to re-infect fresh PM-1 cells weekly. Viral supernatants and infected cells were collected periodically for p24 antigen titers, vicriviroc sensitivity testing in PBL described below in the viral replication assay section, and sequence analysis. […]\nIL-2/PHA-stimulated PBL were seeded into 96-well plates (200,000 cells/well) pretreated with an equal volume of medium plus vicriviroc or medium only at 37° C. for 1 hour. […] Viral replication was assessed by measuring p24 antigen production by ELISA. The IC50 and IC90 values for vicriviroc susceptibility with these viruses was determined by analyzing dose-response curves using a 4-parameter logistic curve fit model with Prism GraphPad Software Version 4.0 (San Diego, Calif.)."}, "[12]": {"conditions": "Human immunodeficiency virus 1, U87/CD4/CCR5"}}, "data": [{"smiles": "COC[C@@H](c1ccc(C(F)(F)F)cc1)N1CCN(C2(C)CCN(C(=O)c3c(C)ncnc3C)CC2)C[C@@H]1C", "note": "[vicriviroc, Vicriviroc]", "values": [{"measurement": "IC50", "setting": "[1]; Human immunodeficiency virus 1, RU570-VCV culture until week 45, PBL", "value": "< 50", "unit": "nM"}, {"measurement": "maximum percent inhibition", "setting": "[1]; RU570-VCV culture until week 45, PBL", "value": 100, "unit": "%"}, {"measurement": "maximal percent inhibition", "setting": "[1]; RU570-VCV culture week 45, PBL", "value": "approximately 76%"}, {"measurement": "maximal percent inhibition", "setting": "[1]; RU570-VCV culture week 47, PBL", "value": "~45", "unit": "%"}, {"measurement": "maximum percent inhibition", "setting": "[1]; RU570-VCV culture week 93, PBL, flat dose-response curve", "value": "approximately 30%"}, {"measurement": "susceptibility to vicriviroc", "setting": "[2]", "value": "completely susceptible"}, {"measurement": "maximum inhibition (MI), plateau level", "setting": "[3]; 2 ng p24 inoculum", "value": "approximately 80%"}, {"measurement": "susceptibility to vicriviroc (phenotype)", "setting": "[3]; ADA-C2-V5res pseudovirus, U87-CD4-CCR5 cells", "value": "resistant phenotype"}, {"measurement": "maximum inhibition (MI), plateau level", "setting": "[3]; high virus inocula, 70 ng p24", "value": "approximately 55%"}, {"measurement": "maximum inhibition", "setting": "[4]", "value": 100, "unit": "%"}, {"measurement": "MI (maximum inhibition)", "setting": "[5]", "value": "approximately 50%"}, {"measurement": "IC50", "setting": "[6]; [12]", "value": 0.1, "unit": "nM"}, {"measurement": "MI values", "setting": "[6]; RU570-PC 160 construct, regardless of the virus concentration (data not shown)", "value": 100, "unit": "%"}, {"measurement": "maximum inhibition", "setting": "[6]; {}", "value": 100, "unit": "%"}, {"measurement": "IC50", "setting": "[7]; [12]", "value": 0.04, "unit": "nM"}, {"measurement": "Emax", "setting": "[7]; Human immunodeficiency virus 1, U87/CD4/CCR5, read-out: maximum response, percent inhibition", "value": 100, "unit": "%"}, {"measurement": "MI values", "setting": "[7]; parental ADA gp160, regardless of the virus concentration (data not shown)", "value": 100, "unit": "%"}, {"measurement": "IC50", "setting": "[8]; [12]", "value": "0.07 to 0.2", "unit": "nM"}, {"measurement": "inhibition at 0.1 µM", "setting": "[8]; Human immunodeficiency virus 1, U87/CD4/CCR5, read-out: maximum inhibition levels", "value": 100, "unit": "%"}, {"measurement": "IC50", "setting": "[9]", "value": 0.025, "unit": "nM"}, {"measurement": "IC50", "setting": "[10]", "value": 0.025, "unit": "nM"}, {"measurement": "susceptibility to vicriviroc", "setting": "[11]", "value": "remained susceptible"}]}]}
